For test [1], the system named is PC-12. In words: Protection against beta-amyloid (25 to 35) insult in rat PC12 cells assessed as viable cells after 24 hrs by MTT assay. The format is functional. As to conditions: PC-12, 24 h, read-out: ED50 (the source's name).
Test [2] has as its system PC-12. In words: Protection against beta-amyloid (1 to 42) insult in rat PC12 cells assessed as viable cells after 24 hrs by MTT assay. The format is functional. As to conditions: PC-12, 24 h, read-out: ED50 (the source's name). On the technique in general: Formazan colour is commonly taken as a measure of viable cells.

Converted amounts (≈) assume the structure as drawn.

The results in this text go back to ChEMBL document CHEMBL1150624, “Discovery of natural products from Curcuma longa that protect cells from beta-amyloid insult: a drug discovery effort against Alzheimer's disease” (2002).

Consider `O=C(/C=C/c1ccc(O)cc1)CC(=O)/C=C/c1ccc(O)cc1` [BISDEMETHOXYCURCUMIN], for which the EC50 in the test on PC-12 [1] came to 2 µg/mL (≈ 6.49 µM); in the test with PC-12 [2], 3.5 µg/mL (≈ 11.4 µM).

Turning to `O=C(/C=C/c1ccc(O)cc1)CC(=O)CCc1ccc(O)cc1`, the values for the EC50 in the test on PC-12 [1] and in the test on PC-12 [2] were 0.5 µg/mL (≈ 1.61 µM) and 1 µg/mL (≈ 3.22 µM), respectively.

With `COc1cc(/C=C/C(=O)/C=C/c2ccc(O)c(OC)c2)ccc1O`, the EC50 in the test with PC-12 [1] and with PC-12 [2] was more than 50 µg/mL in each case.

As to `COc1cc(/C=C/C(=O)COC(=O)/C=C/c2ccc(O)c(OC)c2)ccc1O` [CALEBI A], the values for the EC50 in the test on PC-12 [1] and in the test with PC-12 [2] were 1 µg/mL (≈ 2.6 µM) and 2 µg/mL (≈ 5.2 µM), respectively.

For `COc1cc(/C=C/C(O)=C/C(=O)/C=C/c2ccc(O)cc2)ccc1O` [DEMETHOXYCURCUMIN], the EC50 was 4 µg/mL (≈ 11.8 µM) with PC-12 [1] and 5 µg/mL (≈ 14.8 µM) with PC-12 [2].

As to `COc1cc(/C=C/C=C/C(=O)/C=C/c2ccc(O)c(OC)c2)ccc1O`, the EC50 with PC-12 [1] and with PC-12 [2] was more than 50 µg/mL throughout.

In the case of `Nc1c(/N=N/c2ccc(-c3ccc(/N=N/c4cc(S(=O)(=O)[O-])c5ccccc5c4N)cc3)cc2)cc(S(=O)(=O)[O-])c2ccccc12.[Na+].[Na+]` [CONGO RED], the EC50 in the test on PC-12 [1] was found to be 37.5 µg/mL; in the test with PC-12 [2], 39.2 µg/mL.

Consider `O=C(/C=C/C=C/c1ccc(O)cc1)/C=C/c1ccc(O)cc1`, for which the EC50 with PC-12 [1] and in the test on PC-12 [2] was more than 50 µg/mL throughout.

Take `COc1cc(/C=C/C(=O)CC(=O)CC(O)c2ccc(O)c(OC)c2)ccc1O` (stereo not given): the EC50 was 30.7 µg/mL (≈ 79.5 µM) with PC-12 [1] and 44.3 µg/mL (≈ 115 µM) with PC-12 [2].

Consider `COc1cc(/C=C/C(=O)CC(=O)/C=C/c2ccc(O)c(OC)c2)ccc1O` [CURCUMIN], for which the results for the EC50 in the test with PC-12 [1] and in the test on PC-12 [2] were 7 µg/mL (≈ 19 µM) and 10 µg/mL (≈ 27.1 µM), respectively.
